Consider 1 compound from patent publication US20250034127A1, “AUTOPHAGY INDUCING COMPOUNDS AND USES THEREOF, IN PARTICULAR FOR DISEASES OF THE CNS” (Samsara Therapeutics Inc., priority 2021, published 2025).

For test [1], the system named is primary culture of dopaminergic Tyrosine hydroxylase (TH)-positive neurons. Description: Cellular model of Parkinson's disease (MPTP/MPP+ injury). The format is cell-based, rat. The source says: This model (run by Neuro-Sys SAS, France) is based on a primary culture of dopaminergic Tyrosine hydroxylase (TH)-positive neurons injured with the dopaminergic neurons-specific toxin (DA-toxin) 1-methyl-4-phenyl-1,2,3,6 tetrahydropyridine (MPTP, a prodrug of MPP^+) (Dauer and Przedborski, 2003). Any substances reducing DA-toxin neurotoxicity may be useful as a new therapeutic agent for the treatment or prevention of PD.
Primary culture of mesencephalic neurons: Rat dopaminergic neurons were cultured as described by Visanji et al., 2008 and Callizot et al., 2019. Briefly, pregnant female rat (Wistar) of 15 days of gestation were killed using a deep anesthesia with CO2 chamber and a cervical dislocation. The midbrains obtained from 15-day-old rat embryos (Janvier, France) were dissected under a microscope. The embryonic midbrains will be removed and placed in ice-cold medium of Leibovitz (L15) containing 2% of Penicillin-Streptomycin (PS) and 1% of bovine serum albumin (BSA). The ventral portion of the mesencephalic flexure, a region of the developing brain rich in dopaminergic neurons, was used for the cell preparations.
The midbrains were dissociated by trypsinisation for 20 min at 37° C. (solution at a final concentration of 0.05% trypsin and 0.02% EDTA). The reaction was stopped by the addition of Dulbecco's modified Eagle's medium (DMEM) containing DNAase I grade II (0.5 mg/mL) and 10% of foetal calf serum (FCS). Cells were then mechanically dissociated by 3 passages through a 10 ml pipette. Cells were then centrifuged at 180×g for 10 min at +4° C. on a layer of BSA (3.5%) in L15 medium. The supernatant was discarded, and the cell pellets re-suspended in a defined culture medium consisting of Neurobasal supplemented with B27 (2%), L-glutamine (2 mM) and 2% of PS solution and 10 ng/mL of Brain-derived neurotrophic factor (BDNF) and 1 ng/ml of Glial-Derived Neurotrophic Factor (GDNF). Viable cells were counted in a Neubauer cytometer using the trypan blue exclusion test. The cells were seeded at a density of 40,000 cells/well in 96 well-plates (pre-coated with poly-L-lysine) and maintained in a humidified incubator at 37° C. in 5% CO2/95% air atmosphere. Half of the medium was changed every 2 days with fresh medium. The wells of first and last lines and columns […] (to avoid any edge effect) and were be filled with sterile water.
• i) Pre-incubation. On day 6 of culture, the test compounds were dissolved in PBS or DMSO and incubated for 1 hour before the MPTP exposure. • ii) Injury. One hour after the application of test compound, MPTP was added to a final concentration of 4 μM, diluted in control medium still in presence of compounds/inhibitors for 48 h. Test compounds were tested on one culture in 96-well plate (n=6 culture wells per condition).
Immunostaining: TH and α-Synuclein. 48 Hours after intoxication, the cell culture supernatant was removed, and the cells were fixed by a solution of 4% paraformaldehyde in PBS, pH=7.3 for 20 min at room temperature. The cells were washed twice in PBS, and then permeabilized. Non-specific sites were blocked with a solution of PBS containing 0.1% of saponin and 1% FCS for 15 min at room temperature. The cultures were incubated with: (a) monoclonal anti-Tyrosine Hydroxylase (TH) antibody produced in mouse at dilution of 1/10000 in PBS containing 1% FCS, 0.1% saponin, for 2 hours at room temperature, and (b) polyclonal anti-alpha synuclein (α-synuclein) antibody produced in rabbit at dilution of 1/200 in PBS containing 1% FCS, 0.1% saponin, for 2 h at room temperature.
Automatic computer analysis. For each condition, 20 pictures (representing the whole well area) were automatically taken using ImageXpress® (Molecular Devices) at 10× magnification (20 pictures, for TH and α-synuclein into TH neurons) using the same acquisition parameters. From images, analyses was directly and automatically performed by MetaXpress® (Molecular Devices). […]

In test [2] the test system is Human osteosarcoma U2OS cells. Description: Assay to measure lysosome and autolysosome (acidic vesicle) formation in U2OS cells. The test is classed as cell-based. Conditions: Homo sapiens, concentration of 0.8 μM, read-out: Activity (percentage increase in acidic vesicle formation over the DMSO-treated control).
[3] abbreviates: 500 nM, compared to MPP+ injury alone.

The structures appear in SMILES notation.

`CCN1CCC(N(C)C(=O)c2csc(-c3cnn(-c4ccccc4)c3)n2)CC1` [Compound 196, N-(1-ethylpiperidin-4-yl)-N-methyl-2-(1-phenyl-1H-pyrazol-4-yl)-1,3-thiazole-4-carboxamide]: in test [1], the “effects in the in vitro model of PD based on MPP+ injury” value is recorded as “positive effects”. Further, the “decrease in α-syn area per dopaminergic TH positive neuron” value is listed as 26% in test [1] (100 nM, compared to MPP+ injury alone); 35% in test [1] (setting [3]); 19% in test [1] (1 μM, compared to MPP+ injury alone). Moreover, the “increase in the number of dopaminergic TH positive neurons” value in test [1] (setting [3]) stood at 26%. For the same compound, the activation at 0.8 µM in test [2] lay in the range of 30 to 50%.
